From PubChem BioAssay (NCI)
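The compound was tested at five concentrations on cells cultured in 96-well plates, with a 48-hour exposure period. GI50 marks 50% less growth. TGI denotes the concentration required for complete inhibition of growth.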

Legend:
Assay in all cases: inhibition of tumour cell growth, NCI panel, 48 h
UACC-257 melanoma = system: UACC-257 melanoma
SK-MEL-5 melanoma = system: SK-MEL-5 melanoma
KM12 colon = system: KM12 colon
MCF7 breast = system: MCF7 breast
NCI-H522 lung = system: NCI-H522 lung
M14 melanoma = system: M14 melanoma
RXF 393 renal = system: RXF 393 renal
LOX IMVI melanoma = system: LOX IMVI melanoma
RPMI-8226 leukemia = system: RPMI-8226 leukemia
OVCAR-3 ovarian = system: OVCAR-3 ovarian
IGROV1 ovarian = system: IGROV1 ovarian
MDA-MB-435 = system: MDA-MB-435
MALME-3M melanoma = system: MALME-3M melanoma
NCI-H460 lung = system: NCI-H460 lung
DU-145 prostate = system: DU-145 prostate
SF-295 CNS = system: SF-295 CNS
BT-549 breast = system: BT-549 breast
HCC-2998 colon = system: HCC-2998 colon
MDA-MB-231 breast = system: MDA-MB-231 breast
OVCAR-8 ovarian = system: OVCAR-8 ovarian
SR leukemia = system: SR leukemia
CCRF-CEM leukemia = system: CCRF-CEM leukemia
MOLT-4 leukemia = system: MOLT-4 leukemia
A549 NSCLC = system: A549 NSCLC
HOP-92 NSCLC = system: HOP-92 NSCLC
PC-3 prostate = system: PC-3 prostate
COLO 205 colon = system: COLO 205 colon
UO-31 renal = system: UO-31 renal
CAKI-1 renal = system: CAKI-1 renal
K-562 leukemia = system: K-562 leukemia
SK-OV-3 ovarian = system: SK-OV-3 ovarian
SK-MEL-2 melanoma = system: SK-MEL-2 melanoma
TK-10 renal = system: TK-10 renal
SF-268 CNS = system: SF-268 CNS
SW-620 colon = system: SW-620 colon
NCI-H23 lung = system: NCI-H23 lung
HL-60(TB) leukemia = system: HL-60(TB) leukemia
A498 renal = system: A498 renal
HS 578T breast = system: HS 578T breast
HCT-15 colon = system: HCT-15 colon
EKVX NSCLC = system: EKVX NSCLC
SN12C renal = system: SN12C renal
OVCAR-4 ovarian = system: OVCAR-4 ovarian
OVCAR-5 ovarian = system: OVCAR-5 ovarian
ACHN renal = system: ACHN renal
UACC-62 melanoma = system: UACC-62 melanoma
786-0 renal = system: 786-0 renal
HCT-116 colon = system: HCT-116 colon
T-47D breast = system: T-47D breast
SNB-19 CNS = system: SNB-19 CNS
NCI-H226 lung = system: NCI-H226 lung
SK-MEL-28 melanoma = system: SK-MEL-28 melanoma
HOP-62 NSCLC = system: HOP-62 NSCLC
U251 CNS = system: U251 CNS
SF-539 CNS = system: SF-539 CNS
NCI/ADR-RES ovarian = system: NCI/ADR-RES ovarian

## c1cc2ccc3cc2cc1CNCCN1CCNCc2ccc4ccc(cc4c2)CNCCN(CCNC3)CCNCc2ccc3ccc(cc3c2)CNCC1
UACC-257 melanoma
  GI50: 3.93 µM
  TGI: > 100 µM
SK-MEL-5 melanoma
  GI50: 56 µM
  TGI: > 100 µM
KM12 colon
  GI50: 2.54 µM
  TGI: 6.47 µM
MCF7 breast
  GI50: 0.392 µM
  TGI: 5.15 µM
NCI-H522 lung
  GI50: 0.431 µM
  TGI: 5.56 µM
M14 melanoma
  GI50: 3.27 µM
  TGI: 13.1 µM
RXF 393 renal
  GI50: 17.3 µM
  TGI: 39.4 µM
LOX IMVI melanoma
  GI50: 2.03 µM
  TGI: 4.42 µM
RPMI-8226 leukemia
  GI50: 1.62 µM
  TGI: 6.03 µM
OVCAR-3 ovarian
  GI50: 2.66 µM
  TGI: 8.04 µM
IGROV1 ovarian
  GI50: 2.89 µM
  TGI: 13.1 µM
MDA-MB-435
  GI50: 2.41 µM
  TGI: 6.25 µM
MALME-3M melanoma
  GI50: 2.11 µM
  TGI: 5.58 µM
NCI-H460 lung
  GI50: 2.95 µM
  TGI: 10.8 µM
DU-145 prostate
  GI50: 2.1 µM
  TGI: 5.83 µM
SF-295 CNS
  GI50: 11.9 µM
  TGI: 38.9 µM
BT-549 breast
  GI50: 2.51 µM
  TGI: 7.77 µM
HCC-2998 colon
  GI50: 2.27 µM
  TGI: 6.4 µM
MDA-MB-231 breast
  GI50: 1.91 µM
  TGI: 6.99 µM
OVCAR-8 ovarian
  GI50: 3.61 µM
  TGI: > 100 µM
SR leukemia
  GI50: 2.13 µM
  TGI: 7.87 µM
CCRF-CEM leukemia
  GI50: 2.34 µM
  TGI: > 100 µM
MOLT-4 leukemia
  GI50: 2.82 µM
  TGI: 9.35 µM
A549 NSCLC
  GI50: 2.62 µM
  TGI: > 100 µM
HOP-92 NSCLC
  GI50: 1.31 µM
  TGI: 5.41 µM
PC-3 prostate
  GI50: 2.22 µM
  TGI: 6.99 µM
COLO 205 colon
  GI50: 2.12 µM
  TGI: 6.86 µM
UO-31 renal
  GI50: > 100 µM
  TGI: > 100 µM
CAKI-1 renal
  GI50: 41 µM
  TGI: > 100 µM
K-562 leukemia
  GI50: 1.91 µM
  TGI: > 100 µM
SK-OV-3 ovarian
  GI50: 2.8 µM
  TGI: 8.3 µM
SK-MEL-2 melanoma
  GI50: 2.36 µM
  TGI: 5.89 µM
TK-10 renal
  GI50: 18.6 µM
  TGI: 64.8 µM
SF-268 CNS
  GI50: 2.25 µM
  TGI: 6.44 µM
SW-620 colon
  GI50: 3.36 µM
  TGI: > 100 µM
NCI-H23 lung
  GI50: 1.98 µM
  TGI: 5.99 µM
HL-60(TB) leukemia
  GI50: 2.32 µM
  TGI: 5.53 µM
A498 renal
  GI50: 10.9 µM
  TGI: 30.4 µM
HS 578T breast
  GI50: 3 µM
  TGI: 17.4 µM
HCT-15 colon
  GI50: 80.1 µM
  TGI: > 100 µM
EKVX NSCLC
  GI50: 4.84 µM
  TGI: > 100 µM
SN12C renal
  GI50: 1.71 µM
  TGI: 8.57 µM
OVCAR-4 ovarian
  GI50: 2.89 µM
  TGI: 7.22 µM
OVCAR-5 ovarian
  GI50: 2.38 µM
  TGI: 7.96 µM
ACHN renal
  GI50: 39.4 µM
  TGI: > 100 µM
UACC-62 melanoma
  GI50: 2.37 µM
  TGI: 6.95 µM
786-0 renal
  GI50: 10.4 µM
  TGI: 35.4 µM
HCT-116 colon
  GI50: 2.57 µM
  TGI: 8.82 µM
T-47D breast
  GI50: 2.05 µM
  TGI: 7.54 µM
SNB-19 CNS
  GI50: 2.66 µM
  TGI: 8.38 µM
NCI-H226 lung
  GI50: 2.27 µM
  TGI: 6.11 µM
SK-MEL-28 melanoma
  GI50: 2.42 µM
  TGI: 6.32 µM
HOP-62 NSCLC
  GI50: 2.99 µM
  TGI: 13.2 µM
U251 CNS
  GI50: 1.48 µM
  TGI: 10.4 µM
SF-539 CNS
  GI50: 1.89 µM
  TGI: 4.87 µM
NCI/ADR-RES ovarian
  GI50: > 100 µM
  TGI: > 100 µM
